From PubChem BioAssay AID449762 (Southern Research Specialized Biocontainment Screening …, 2010)
Records with an inconclusive call do not appear.

System: M. tuberculosis H37Rv growth inhibition, 7H9 media
Assay: M. tuberculosis growth inhibition, HTS (AID 449762);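 further: bacterial growth assessed after seven days of incubation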
Settings: for IC90: measured here: IC90 growth inhibition

Structure (SMILES)	IC50	IC90
CNC(CC(=O)c1ccc([N+](=O)[O-])cc1)C(Cl)(Cl)Cl (centres undefined)	2.26 µM	5.81 µM
COC(=O)CSc1[nH]c2ccc(Br)cc2c1[N+](=O)[O-]	5.64 µM	9.31 µM
CC1=C(/C=C/C(C)=C/C=C/C(C)=C/C(=O)Nc2ccc(O)cc2)C(C)(C)CCC1	41.9 µM	59.8 µM
CCOC(=O)c1sc2nc(C)nc(SC(C)C(=O)N(C)c3ccccc3)c2c1C (centres undefined)	35.1 µM	46.5 µM
Nc1ccc2c(c1)Cc1ccccc1-2	–	> 100 µM
O=C(COC(=O)C1=COCCO1)NCc1ccc(Cl)cc1	14.8 µM	> 100 µM
CC1=NN(C(=O)c2ccc(Br)cc2)C(O)(c2ccccc2)C1 (centres undefined)	48.1 µM	65.6 µM
CC(C)OC(=O)c1ccc(NC(=S)NC(=O)c2cncc(Br)c2)cc1	52.4 µM	> 100 µM
O=C(c1cc(COc2ccc(F)cc2F)on1)N1CCCC(c2ccccc2)C1 (centres undefined)	17.6 µM	39.8 µM
CCNCC(=O)N1c2ccccc2CCc2ccc(NC(=O)OC(C)C)cc21	55.9 µM	71.3 µM
CCOC(=O)CNC(=O)CNC(=O)c1nn(-c2ccc(OC)c(Cl)c2)c(=O)c2ccccc12	22.2 µM	> 100 µM
COC(=O)C1CC(=O)N(c2ccc(OCc3ccccc3Cl)cc2)C1 (centres undefined)	0.52 µM	3.52 µM
CN(C)c1ccc(CNc2nc(-c3ccccc3)nn2S(C)(=O)=O)cc1	12 µM	13.8 µM
O=[N+]([O-])c1ccc(Sc2cc[n+]([O-])c3ccccc23)c([N+](=O)[O-])c1	16.1 µM	24.3 µM
Cc1oc2c(c1C(=O)NCc1cccnc1)C(=O)c1ccccc1C2=O	9.78 µM	13.9 µM
CCOC(=O)C1=C(C)NC(SCC(=O)Nc2nc(C)cs2)=C(C#N)C1c1cccs1 (centres undefined)	34.4 µM	48.7 µM
CCOC(=O)c1nnc(-c2ccccc2)nc1NCc1ccccc1	14.6 µM	> 100 µM
S=C(Nc1ccc(Nc2ccccc2)cc1)Nc1ccccn1	48.7 µM	> 50 µM
COc1ccc(C2=CC(c3c(C)nn(-c4ccccc4)c3Cl)n3nnnc3N2)cc1OC (centres undefined)	40.8 µM	78.9 µM
CCc1ccc(C2=NN(c3ccc(S(N)(=O)=O)cc3)C(c3ccc(F)cc3)C2)cc1 (centres undefined)	36.2 µM	48.7 µM
COc1ccc2nc(N=NC3=C(O)CC(C)(C)CC3=O)sc2c1	12.4 µM	13.7 µM
COc1ccccc1N1CCN(/N=C/C(Cl)=C/c2ccccc2)CC1	52.7 µM	> 100 µM
COc1cccc(-c2cnc(NCc3cc(Cl)ccc3O)n2C)c1	19.1 µM	22.9 µM

Structure (SMILES)	IC50	IC90
O=C(CSc1nc2ncc(Br)cc2[nH]1)Nc1ccc2c(c1)OCO2	6.01 µM	16.1 µM
O=C(CCl)NCCCCCCCCCNC(=O)CCl	< 0.2 µM	< 0.2 µM
CCOC(=O)c1ccc(N=C2SC(C(=O)Nc3ccc(C(=O)O)cc3)CC(=O)N2Cc2cccs2)cc1 (centres undefined)	–	> 100 µM
Cc1ccc(C(c2nnnn2Cc2cccs2)N2CCN(Cc3ccc4c(c3)OCO4)CC2)cc1 (centres undefined)	21 µM	27.9 µM
C(C#CCCCCCCCCC[n+]1ccccc1)#CCCCCCCCCC[n+]1ccccc1	2.8 µM	4.43 µM
O=[N+]([O-])/C=C/c1cn(Cc2ccccc2)c2ccccc12	82.9 µM	> 100 µM
CSc1nsc(/C=C/Nc2ccc(O)cc2C)c1C#N	27 µM	43 µM
CCOC(=O)CSC1=C(C#N)C(c2ccc(C)cc2)C2=C(CCCC2=O)N1 (centres undefined)	43.9 µM	> 100 µM
CCN1CCN(Cc2ccc(NC(=O)c3ccc(C)c(/C=C/c4cnc(Nc5cc(N6CCNCC6)nc(C)n5)cn4)c3)cc2C(F)(F)F)CC1	35.1 µM	57.9 µM
CCCNC(=O)NC(=O)COc1ccc2oc3ccccc3c2c1	–	> 100 µM
CCCc1ccc(C2=Nn3c(nnc3C(C)C)SC2)cc1	18.7 µM	29.7 µM
O=C1C(Cl)=C(N2CCOCC2)C(=O)N1c1cccc(Cl)c1	3.48 µM	7.3 µM
Cc1cc(C)cc(NC(=O)c2ccc(Cn3nc(C)c(Cl)c3C)o2)c1	30.8 µM	41.9 µM
CCn1cnc2sc(C(=O)Oc3ccc(Br)cc3)c(C)c2c1=O	3.2 µM	11.3 µM
O=C(c1cc2cc(F)ccc2[nH]1)N(Cc1cccnc1)CC1CCCN(C2CCCCC2)C1 (centres undefined)	25 µM	33.6 µM
CCCC(=O)Nc1ccc(C(=O)/C=C/c2ccc(SC)cc2)cc1	22.9 µM	37.1 µM
O=C(Oc1ccc(-c2cn3c(n2)SCC3)cc1)c1ccccc1	38.2 µM	> 100 µM
CCOC(=O)N1CCN(C(=O)CSc2nnc(-c3ccc(Cl)s3)o2)CC1	13.1 µM	34.1 µM
Cc1ccc(C(=O)N/C(=C/c2ccco2)C(=O)OCN2C(=O)c3ccccc3C2=O)cc1	6.83 µM	49.9 µM
N#Cc1ccc(CN2CCN(CC(=O)NCCc3ccc(Cl)cc3Cl)CC2)cc1	43.1 µM	54 µM
Oc1ccccc1/C=N/NC(=S)NC1CC2CC1C1C=CCC21 (centres undefined)	11.1 µM	12.3 µM
CC(=O)/C(=C\Nc1ccc(OCc2ccccc2)cc1)c1ccccc1	2.28 µM	12.1 µM
Cn1nc(C(F)(F)F)c2cc(NC(=O)OCC(C)(C)C)sc21	13.2 µM	40 µM

Structure (SMILES)	IC50	IC90
COCCn1nnnc1C(c1cc2cc(OC)ccc2[nH]c1=O)N1CCC(Cc2ccccc2)CC1 (centres undefined)	89.2 µM	99.8 µM
CSc1nsc(SCC(=O)N2CCCCC2)n1	5.47 µM	8.81 µM
CC1CCC(NC(=O)c2cc3c(s2)CCCC3)CC1 (centres undefined)	40.1 µM	57.1 µM
COC(=O)c1ccc(NC(=S)NC(=O)C2CCC2)cc1	41.9 µM	55.9 µM
O=C(Nc1ccc(Cl)cc1)N(C1=NCCC1)c1ccc(OC(F)F)cc1	35 µM	70.9 µM
O=S1(=O)N(CCN2CC=C(c3c[nH]c4cc(F)ccc34)CC2)c2cccc3c2N1CCC3	11.1 µM	11.7 µM
COC(=O)c1ccc(/C=C/c2c(-c3ccsc3)oc3ccc(N4CCOCC4)cc23)cc1	21.2 µM	41.2 µM
Cc1ccc(OC(=O)CCN2C(=O)c3ccccc3C2=O)cc1C	28.6 µM	> 100 µM
CCOP(=O)(OCC)/C(=C/N1CCCCC1)NC(=O)c1ccccc1	81.4 µM	> 100 µM
COc1ccccc1C(=O)NC(=Nc1nc2ccccc2o1)NC(=O)c1ccccc1OC	96.3 µM	> 100 µM
CC(OC(=O)c1cc(Cl)ccc1[N+](=O)[O-])C(=O)NC(C)c1ccc(F)cc1 (centres undefined)	22.8 µM	26 µM
CCN1/C(=C/C=C/c2oc3ccc(-c4ccccc4)cc3[n+]2CC)Oc2ccc(-c3ccccc3)cc21	3.74 µM	4.74 µM
Clc1cccc(-c2cc3nc4c(c(NCc5ccco5)n3n2)CCCC4)c1	11 µM	17.4 µM
CCOC(=O)C1CCN(C(=O)CSCc2nc(-c3ccc(OCC)cc3)oc2C)CC1	42.9 µM	48.1 µM
CCOC(=O)N1CCN=C1SCc1ccc(C(F)(F)F)cc1	–	> 100 µM
COc1ccc(-c2oc3cccnc3c2/C=C/c2ccc(OC)c(OC)c2)cc1	51.3 µM	> 100 µM
Oc1ccc(F)c2cccnc12	5.26 µM	6.88 µM
Cn1c(CNc2nc(-c3ccccc3)cs2)nnc1SCC(=O)OC1CCCCC1	11.6 µM	24.2 µM
O=C(CSc1nn(-c2ccc(F)cc2)c(=S)s1)NCC1CCCO1 (centres undefined)	6.13 µM	> 100 µM
Cc1nnc(-c2ccccc2)c(=O)n1/N=C/c1c(O)ccc2ccccc12	24.1 µM	27.3 µM
Cc1nc(NC(=O)c2ccccc2)sc1C1(C)CC(c2ccc(OC(F)(F)F)cc2)=NO1 (centres undefined)	24.6 µM	41.1 µM
CC1(C)OC(=O)C(=Cc2ccc[nH]2)C(=O)O1	< 0.2 µM	24.1 µM
CCCCCNc1nc(N2CCCC2)c2c(c1C#N)CCN(C)C2	83.7 µM	> 100 µM

Structure (SMILES)	IC50	IC90
CCOC(=O)c1sc(C)c2c(=O)n(CC(=O)c3ccc(Br)cc3)nnc12	74.3 µM	> 100 µM
CNC(=S)Nc1ccc(N2CCN(c3ccc(C(F)(F)F)cn3)CC2)nc1	9.93 µM	> 100 µM
Cc1ccc(C)c(NC(CC(=O)c2ccccc2)C(=O)OCC(=O)c2cccs2)c1 (centres undefined)	5.16 µM	7.68 µM
CN(C)c1ccnc2c[cH-]cc12.[Fe].c1ccc(-[c-]2[c-](-c3ccccc3)[c-](-c3ccccc3)[c-](-c3ccccc3)[c-]2-c2ccccc2)cc1 (centres undefined)	13.7 µM	17.4 µM
O=C(CCl)NCc1cc(-c2ccc(Cl)cc2)no1	< 0.2 µM	1.33 µM
COc1ccc2c(c1)CCc1c(C(=O)Nc3c(C)n(C)n(-c4ccccc4)c3=O)noc1-2	14.2 µM	> 100 µM
CN(C)C(=O)c1ccc(NC(=O)COC(=O)c2cc3c(s2)CCCCC3)cc1	45.8 µM	> 100 µM
C=CCN(CC=C)C(=S)NC(=O)c1ccc(-c2ccccc2)cc1	10.8 µM	14.1 µM
O=C(CCc1nnc(CCCc2ccccc2)o1)NCCCC1CCCC1	10.5 µM	23.1 µM
O=C(N/N=C\c1ccc[nH]1)c1cncc(Br)c1	25.2 µM	49 µM
Cc1ccc(-c2cccc(NC(=O)C3C4C=CC(C4)C3C(=O)O)c2)o1 (centres undefined)	74.2 µM	> 100 µM
CC(C)Cc1ccc(C(C)C(N)=NCCc2ccccc2)cc1 (centres undefined)	22.6 µM	25.8 µM
O=C1/C(=C\c2ccncc2)CCc2ccccc21	20.8 µM	34.8 µM
O=C(CSc1ccc(Cl)cc1)N1CCC(c2nc3ccccc3s2)CC1	85.9 µM	92.9 µM
CCN(CC)S(=O)(=O)c1ccc(/C=C/C(=O)OCC#N)cc1	6.59 µM	39.6 µM
O=C(NNC(=O)C12CC3CC(CC(C3)C1)C2)c1ccccn1	5.36 µM	23.5 µM
COC(=O)/C(=C1/Oc2cc(C)oc(=O)c2S1)C(F)(F)F	6.24 µM	> 100 µM
CCOC(=O)c1ccc(NC(=O)Cn2ncc(Cl)c(Cl)c2=O)cc1	< 0.2 µM	0.44 µM
CCc1nnc(NC(=O)CN2CCN(c3nc(-c4ccccc4)cs3)CC2)s1	45.8 µM	52.4 µM
Ic1ccccc1CN[C@@H]1C2CCN(CC2)[C@@H]1C(c1ccccc1)c1ccccc1	29.5 µM	38.4 µM
